In patent US20260297542A1, “HERBICIDE RESISTANT PLANTS” (SYNGENTA CROP PROTECTION AG, priority 2023, published 2026):

Biological target: T1, AtPPO1 D448N (Arabidopsis thaliana, UniProt P55826, D448N)
T1 construct: expressed in transfected cells; host or cells: E. coli BL21(DE3) hemG, pET24a plasmid
T1 sequence (P55826 35-537 D448N): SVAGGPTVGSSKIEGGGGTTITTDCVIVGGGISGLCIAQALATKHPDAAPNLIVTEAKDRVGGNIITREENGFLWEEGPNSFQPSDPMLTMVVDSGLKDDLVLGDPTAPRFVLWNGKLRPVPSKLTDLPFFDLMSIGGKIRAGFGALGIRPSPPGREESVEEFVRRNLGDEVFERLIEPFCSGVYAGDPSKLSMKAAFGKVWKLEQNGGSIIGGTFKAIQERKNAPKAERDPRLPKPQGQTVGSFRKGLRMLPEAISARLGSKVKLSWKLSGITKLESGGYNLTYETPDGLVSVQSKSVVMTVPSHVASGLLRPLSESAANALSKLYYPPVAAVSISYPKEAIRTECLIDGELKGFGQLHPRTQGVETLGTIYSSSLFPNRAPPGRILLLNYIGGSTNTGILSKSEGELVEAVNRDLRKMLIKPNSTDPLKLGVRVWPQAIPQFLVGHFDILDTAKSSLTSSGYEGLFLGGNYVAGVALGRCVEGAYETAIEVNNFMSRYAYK
Assay: E. coli hemG growth inhibition by herbicide, AtPPO1 variant
Assay type: cell-based
Settings: read-out: percentage growth inhibition
Outline: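 E. coli BL21(DE3) ΔhemG::CmR complemented by AtPPO1 variants (pET24a, T7, E. coli codon-optimised); TB + 0.1 mM IPTG, 1:100 inoculum; 6.25 ppm herbicide 0/E or 0.78 ppm herbicide B vs DMSO; 24 h, 37° C, 250 rpm; OD600 at 24 h → % growth inhibition.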

| Compound | inhibition at 0.78 ppm [%] | inhibition at 6.25 ppm [%] |
| --- | --- | --- |
| C#CCN1C(=O)C(F)(F)Oc2cc(F)c(-n3c(=O)n(C)c(=S)n(C)c3=O)cc21 [Herbicide B, trifludimoxazin] | 40 |  |
| CCOC(=O)[C@]1(C)CC(c2cc(-n3c(=O)n(C)c(=S)n(C)c3=O)c(F)cc2Cl)=NO1 [Herbicide D, ethyl (5S)-3-[2-chloro-5-(3,5-dimethyl-2,6-dioxo-4-thioxo-1,3,5-triazinan-1-yl)-4-fluoro-phenyl]-5-methyl-4H-isoxazole-5-carboxylate] |  | 38 |
| CC(C)N(C)S(=O)(=O)NC(=O)c1cc(-n2c(=O)cc(C(F)(F)F)n(C)c2=O)c(F)cc1Cl [Herbicide E, saflufenacil] |  | 63 |
